IC50 data for 1 compound are collected here from BindingDB's records for PubMed 39882870 (University of Modena and Reggio Emilia).

The test deals with Adenosine receptor A2a (Homo sapiens) (UniProt P29274). The test is described as follows: Negative allosteric modulation of A2AR (unknown origin) expressed in CHO cells in presence of adenosine by CamBio assay.
Chain of Adenosine receptor A2a (Homo sapiens) (P29274 whole entry, looked up): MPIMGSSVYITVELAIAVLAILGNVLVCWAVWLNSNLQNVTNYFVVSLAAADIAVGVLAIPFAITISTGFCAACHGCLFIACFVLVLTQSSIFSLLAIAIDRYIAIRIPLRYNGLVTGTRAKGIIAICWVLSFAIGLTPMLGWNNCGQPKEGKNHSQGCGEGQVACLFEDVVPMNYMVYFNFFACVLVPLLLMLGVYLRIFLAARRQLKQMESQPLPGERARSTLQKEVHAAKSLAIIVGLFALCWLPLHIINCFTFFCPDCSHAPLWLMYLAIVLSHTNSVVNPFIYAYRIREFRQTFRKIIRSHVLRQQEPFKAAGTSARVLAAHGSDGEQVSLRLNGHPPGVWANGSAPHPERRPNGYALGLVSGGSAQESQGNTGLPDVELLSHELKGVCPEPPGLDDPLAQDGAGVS

In general, IC50 refers to the concentration needed to halve the response being measured. On to `N#Cc1c(N)nc(N2CCCCC2)c(C#N)c1-c1cccnc1`, for which the IC50 is 9 nM.
